Measurements published in patent US20260306463A1, “SIK INHIBITORS TO TREAT CHRONIC KIDNEY DISEASE” (The General Hospital Corporation, priority 2023, published 2026).
“Also recorded” adds a separate entry of the source.

What was measured:
human kidney organoids = assay: cisplatin injury of human kidney organoids: immunostaining, organoid size; format: cell-based; conditions: intermittent cisplatin, 5 treatments
Procedure: FIG. 7. SK-124 preserves human kidney organoid integrity in cisplatin injury model. Human kidney organoids derived from H9 embryonic stem cells were treated with intermittent cisplatin (5 separate treatments) based on published protocols along with the indicated agent. Organoids were cryo-sectioned and immuno-stained with the indicated markers. The top panels show low power images and the bottom panels focus on regions of proximal tubule cells. The graph measures the mean diameter of organoids in the control (no cisplatin), cisplatin+DMSO, and cisplatin+SK-124 treatment groups.
BJFF human induced pluripotent stem cells (hPSCs) were maintained on Geltrexcoated (Thermo Fisher Scientific) plates using StemFit Basic04 Complete (Ajinomoto Co. Inc.) as previously reported(25). The cells were passaged weekly using Accutase (STEMCELL Technologies) for dissociation and Y27632 (Tocris) for adhesion. Directed differentiation of hPSCs into kidney organoids has been published elsewhere (29). Briefly, hPSCs were differentiated into metanephric mesenchyme cells on day 8 by a three-step directed differentiation protocol. Metanephric mesenchyme was transferred into suspension culture in 96-well ultralow adhesion plates (Coming) and further differentiated into kidney organoids, as previously reported(25). Quality control measures of SIX2 immunostaining on day 8 of differentiation and CDH1, LTL, PODXL, CD146, MEIS1/2/3, and SYTOX-blue staining on day 21 were performed on all batches of kidney organoids to limit batch-to-batch heterogeneity. Kidney organoids were maintained in 200 μl of basal media consisting of Advanced RPMI (Thermo Fisher Scientific) and GlutaMAX (Thermo Fisher Scientific) in 96-well plates, as previously reported. Media changes were conducted three times weekly with removal of 90 [l and addition of 100 μl of fresh basal media.
For cisplatin induced injury, day 49 organoids were treated with 5 μM cisplatin in basal media after full media change. After 24 hours, full media exchanges were performed. This 24-hour treatment was performed twice a week, on day 52-53, day 56-57, day 59-60, and day 63-64 as well, for a total of five cisplatin treatments. Samples were obtained for RT-qPCR and immunostaining immediately following each 24-hour treatment with cisplatin, and from corresponding controls.
Following the treatment, the organoids were collected and immediately fixed in 4% PFA in PBS for 1 hour at room temperature, submerged in 30% sucrose overnight at 4° C., then embedded in O.C.T. Compound (4585. Fisher HealthCare). Subsequently, […] frozen sections were prepared via cryo-sectioning by a cryostat. After 1 hr blocking at room temperature, the sections were treated overnight at 4° C. with primary antibodies in antibody dilution buffer (ADB) with biotinylated LTL (1:200, B-1325, Vector), rat anti-CDH1 (1:500, ab11512, Abcam), goat anti-PODXL (1:500, AF1658, R&D Systems), as well as the antibody of interest, either mouse anti-p21 (1:200, NBP2-43697, Novus Biologicals), or rabbit anti-γH2AX (1:100, 2577, Cell Signaling) antibodies. For the optimum labeling of LTL by biotin/streptavidin interaction, the Streptavidin/Biotin Blocking Kit (SP-2002, Vector Laboratories) was applied according to the manufacturer's instructions. After washing, the samples were stained for 1 hour at RT with the nuclear dye-SYTOX Blue (1:500. S 11348, Invitrogen) and the corresponding secondary antibodies in ADB such as streptavidin-AF750 (1:500, S21384, Invitrogen), donkey anti-rat IgG-AF594 (1:500, A21209, Invitrogen), donkey anti-goat IgG-AF555 (1:500, A21432, Invitrogen), and donkey anti-rabbit IgG-AF488 (1:500, A21206, Invitrogen) for γH2AX or donkey anti-mouse IgG-AF488 (1:500, A21202, Invitrogen) for p21 antibodies as well as mouse anti-Meisl/⅔ (1:200, sc-101850, SantaCruz) conjugated antibody, and slides were mounted with Vectashield antifade mounting medium (H1000, Vector Laboratories). […]

[1] = test system: mice with adenine diet-induced chronic kidney disease; assay: 8 week adenine diet CKD study, SK-124 versus once daily PTH injections; format: in vivo, mouse (female CD1); conditions: 8 weeks
Procedure: FIGS. 4A-4D. […] (A) Study design: Female CD1 mice (n=8/group) were treated with control or 0.2% adenine diet starting at […] of age along with vehicle, PTH (80 mcg/kg/d, IP injections) or SK-124 (40 mg/kg) treatment by oral gavage once daily. Mice were treated for 8 weeks. (B, C) After 8 weeks of treatment, the indicated serum analyte was measured. (D) Whole kidney RNA from the indicated groups was analyzed by RT-qPCR for the indicated fibrosis marker gene.
(§1) 7-week-old female CD1 mice were obtained from Charles River Laboratories (Wilmington, MA) and were fed on 0.2% adenine containing diet (TD.130900; 0.2% Adenine, 0.9% Phosphate, 0.5% Calcium; Envigo) or control diet (TD. 96348) for 6 or 8 weeks to induce chronic kidney disease (CKD). Mice were oral gavaged with 40 mg/kg SK-124, or intraperitonially injected with 80 μg/kg PTH, or treated with vehicle 5 days a week for the duration of the special diet.
For studies with Ubiquitin-Cre^ERt2; Sik2^ff; Sik3^ff mice (JAX #007001 for Ubiquitin-Cre^ERt2: RRID:MGL:5905012 for Sik2 foxed mice; and Sik3^tmla(EUCOMM)Hmgu mice (RRID:MGI:5085429) bred to PGK1 FLPo mice (JAX #011065) in order to generate Sik3 foxed mice), tamoxifen was injected (1 mg, IP, Q48 hours, 3 injections total) in all animals including Cre-negative control littermates housed in cages with Pure-o′Cel bedding at 5 weeks of age. Mice were then fed on 0.2% adenine diet from 6 weeks to 9 weeks of age. Mice were fasted for 6 hours and treated with SK-124 and PTH 4 hours and 2 hours before the sacrifice. Blood and spot urine samples were collected by cheek pouch bleeding and by pipetting urine collected on hydrophobic sand (Labsand; Braintree, MA). Kidneys were immediately snap-frozen in liquid nitrogen for TRIzol (Life Technologies)-Chloroform (Fischer Scientific) based RNA isolation or protein isolation, or fixed in 10% formalin at 4C for 24 hrs for histology. All serum and urine measurements were performed using commercial bioassay detection reagents listed in Table 1, following the manufacturers' instructions. Urine protein levels were measured by Bradford assay and normalized to urine creatinine.
(§2) cDNA was prepared using Primescript RT kit (Takara Inc), with 750 ng RNA per reaction. RT-qPCR was performed by using PerfeCa® SYBR® Green FAstMix® ROX (Quanta bio) in the StepOnePlus™ Real-time PCR System (Applied Biosystems). Hmbs was used as a control housekeeping gene for mouse samples, and B-Actin was used for organoids, relative expression was calculated (2^-deltaCT method) and compared to the mean of control group if necessary. Primers used for RT-qPCR are listed in Table 2 (mouse primers) and Table 3 (human primers).

[2] = test system: renal fibrosis, adenine-induced CKD mice; assay: renal fibrosis in adenine CKD mice (trichrome, immunoblot, RT-qPCR); format: in vivo, mouse; conditions: adenine diet; SK-124 40 mg/kg oral
Procedure: FIGS. 3A-3C. SK-124 treatment reduces fibrosis in adenine-induced chronic kidney disease. (A) Representative trichrome stained sections from the indicated groups. Darker staining indicates fibrosis which is increased in vehicle-treated adenine diet mice and reduced by SK-124 treatment. (B) Kidney protein lysates were isolated and analyzed by immunoblotting for alpha-smooth muscle actin (αSMA) (top) and GAPDH (bottom). (C) Whole kidney RNA from the indicated groups was analyzed by RT-qPCR for the indicated fibrosis marker.
as §1, §2
(§3) Snap-frozen kidneys were homogenized in NP-40 lysis buffer (FNN0021, Thermo) with using TissueLyserII at 30 Hz for 5 minutes. Samples were rotated at 4 deg for 20 minutes and frozen on dry ice and thawed. After centrifuging for 30 minutes at 4 deg, the supernatants were collected. After determining the protein concentration by Bradford assay, […] of protein was loaded for western blotting. For KGli cells, the cells were washed with cold PBS then scraped into TNT buffer (Tris-NaCl-Tween buffer, 20 mM Tris-HCl pH 8, 200 mM NaCl, 0.5% Triton X-100 containing 1X-protease inhibitor cocktail (Bimake Inc. 100X, Cat. #B14001), 1 mM DTT, 1 mM NaF, 1 mM Vanadate (New England Biolabs)). Next, samples were vortexed for 1 minute and centrifuged at 14,000g for 6 minutes at 4 deg, and the supernatant was collected.
(§4) For immunoblotting, the lysates were separated by SDS-PAGE (Bio-rad precast gels), and proteins were transferred to the nitrocellulose membranes. Then, the membranes were blocked in 5% milk in tris-buffered saline plus 0.05% Tween-20 (TBST) and incubated with primary antibody in 5% BSA-TBST overnight at 4° C. Next day, after washing, membranes were incubated with anti-rabbit HRP-coupled secondary antibody (1:2500, Cell Signaling Technology, 7074S) or anti-mouse HRP-coupled secondary antibody (1:2500, Cell Signaling, 7076S), and signals were detected with SuperSignal West Femto Maximum Sensitivity Substrate (Thermo scientific) using the iBright imager (ThermoFisher). The antibodies used are: SIK2 (1:1000, Cell Signaling, 6919), GAPDH (1:1000, Cell Signaling, 2118), αSMA (1:1000, Invitrogen, 14-9760-82), pSMAD3 (1:1000, Cell Signaling, 9520), and SMAD⅔ (1:1000, Cell Signaling, 8685).
Hematoxylin and eosin (H+E) staining was performed on some sections using standard protocols and Masson's Trichome stain for fibrosis was performed according to the manufacturer's instructions (ab150686, abcam). Formalin-fixed paraffin embedded sections were also used for in situ hybridization according to the manufacturer instructions (ACDbio). Briefly, the sections were blocked with hydrogen peroxide for 10 minutes at room temperature, followed by antigen retrieval with Pepsin (R2283, Sigma-Aldrich) in humidified chamber in 40° C. HybEZ oven. The Sik1 (526411, ACD), Sik2 (526421, ACD), or Sik3 (526431, ACD) probe was added to the sections for 2 hours in the humidified chamber at 40° C. Then, the signal was amplified (322310, ACD) and detected using Brown DAB kit (322310, ACD). […]

[3] = test system: SIK isoforms (Sik1, SIK2, Sik3); assay: SIK isoform expression in kidneys of adenine diet mice (immunoblot, RT-qPCR, RNAscope); format: in vivo, mouse
Procedure: FIGS. 2A-2C. SIK isoform expression in adenine-induced chronic kidney disease. (A) Kidney protein lysates were isolated and analyzed by imnunoblotting for SIK2 (top) and GAPDH (bottom). SIK2 protein levels are increased in adenine diet. (B) Whole kidney RNA from the indicated groups was analyzed by RT-qPCR for the indicated SIK isoform. (C) Kidney sections from control and CKD (6 weeks adenine diet) were stained using RNAscope (darker shade) for the indicated SIK isoform.
as §2, §3
as §4, with “The antibodies used are: SIK2 (1:1000, Cell Signaling, 6919), GAPDH (1:1000, Cell Signaling, 2118), αSMA (1:1000, Invitrogen, 14-9760-82), pSMAD3 (1:1000, Cell Signaling, 9520), and SMAD⅔ (1:1000, Cell Signaling, 8685).” left out
Hematoxylin and eosin (H+E) staining was performed on some sections using standard protocols and Masson's Trichome stain for fibrosis was performed according to the manufacturer's instructions (ab150686, abcam). […] Then, the signal was amplified (322310, ACD) and detected using Brown DAB kit (322310, ACD).

[4] = test system: whole kidney transcriptome; assay: bulk RNA-sequencing of whole kidney, adenine CKD mice; format: in vivo, mouse; conditions: bulk RNA-seq; adenine vs control diet, or SK-124 vs vehicle in CKD mice
Procedure: FIGS. 6A-6F. The effects of SK-124 treatment at the transcriptomic level in adenine-induced mouse chronic kidney disease. RNA-seq was performed on whole kidney RNA samples (n=7/group) from FIG. 1. Volcano plot show gene regulated (>2-fold change, p(adj)<0.05) by CKD (versus control diet, A) or in CKD by SK-124 (versus vehicle control, B). In Volcano plot, representative fibrosis markers (Col3a1, Vim, Serpinel) and proximal tubule integrity (Lrp2. Atplai, and Hnf4a) are shown. Scatterplot (C) and heatmap (D) showing integration of individual RNA-seq comparisons. […] (E) Single cell RNA-sequencing was performed on dissociated kidneys from adenine diet fed mice treated with vehicle or SK-124 (n=4/group). […] (F) Relative cellularity of each annotated cluster is shown in pie chart format for adenine+vehicle (CKD-Veh) or adenine+SK-124 (CKD-SK-124) mice.
Isolated RNA samples from the mouse adenine diet study and human kidney organoid experiment were submitted to Novogene and bulk-RNA sequencing on NovaSeq X Plus Ilumina Novoseq Platform. Sequencing reads were mapped to the mouse reference genome (mm10/GRCm38) or human reference genome (GRCh38/hg38) using Salmon and differential gene expression analysis was performed using DESeq2.

[5] = SK-124 40 mg/kg oral gavage once daily, or PTH 80 mcg/kg/d IP
[6] = whole kidney RNA, RT-qPCR, 6 weeks adenine diet

| Sik1 expression [3, 6] | Sik2 expression [3, 6] | Sik3 expression [3, 6] | Compound | patterns of cisplatin-induced injury (human kidney organoids) | CKD-MBD markers [1, 5] | kidney function [1, 5] | fibrosis marker gene expression ([1]; whole kidney RT-qPCR, SK-124 40 mg/kg oral, or PTH 80 mcg/kg/d IP) | fibrosis (trichrome staining) [2] | SIK2 protein level ([3]; kidney lysates, immunoblot, 0.2% adenine diet, 6 weeks) | injury markers (Col3a1, Vim, Serpine1) [4] | markers of intact proximal epithelial cells (Lrp2, Atpla1, Hnf4a) / epithelial cell integrity [4] |
| --- | --- | --- | --- | --- | --- | --- | --- | --- | --- | --- | --- |
|  |  |  | PTH: Human PTH1-34, dissolved in 10 mM acetic acid | minimal effects | did not cause these effects | did not cause these effects | did not cause these effects |  |  |  |  |
| increased | increased | trends towards increased | Nc1ncnc2nc[nH]c12 [adenine] |  |  |  |  | increased | increased; also recorded: robust SIK2 upregulation | upregulated | reduced |
